In patent US7405305B2 (Eli Lilly and Company, priority 2002, dated 2008):
Where a name gives a salt, the structure may show the parent alone. Read-outs that look alike come from different tables or passages of the source.

Experiments:
recombinant human GSK-3β = recombinant human GSK-3β (Homo sapiens, UniProt P49841); experiment: Kinase Inhibition Assay (GSK-3β, 33P phosphoCREB peptide filter assay); assay type: biochemical
Text: An important in vitro test is the ability of the compound to inhibit the activity of the GSK-3β enzyme. This test is done according to a standard protocol. (See Fiol, et al, A Secondary Phosphorylation of CREB^341 at Ser^129 Is Required for the cAMP-Mediated Control of Gene Expression: A Role for Glycogen Synthase Kinase-3 in the Control of Gene Expression, J. Biol. Chem., 269, 32187-32193 (1994)).
The catalysis of the reaction:
(pS)YR+AT^33P→KRREIL(^33pS)RRP(pS)YR [measured]+ADP by GSK-3β is measured in a reaction mixture comprised of the following: 50 mM MOPS (4-morpholinepropanesulfonic acid) pH 7.0; 50 μM phosphoCREB peptide; 50 μM ATP; 0.5 μCi ATP[γ-^33P]; 12.5 mM MgCl2; 0.03% Triton-X; 4% DMSO; and 1 nM recombinant human GSK-3β. The reaction is initiated by the addition of enzyme. The final reaction volume is 100 μL. The reaction is allowed to proceed for 60 minutes at room temperature and is stopped by the addition of 75 μL of 10% phosphoric acid. To capture KRREIL(^33pS)RRP(pS)YR formed in the reaction and to remove unreacted AT^33P, 160 μL of the stopped reaction mixture is transferred to a pre-wetted (0.75% phosphoric acid) phosphocellulose microfiltration plate [Millipore Cat.# MAPH NOB 50] and after 90 minutes incubation on the plate, the stopped reaction mixture is passed through the filter using a Titertek Map Extractor. The filter containing the trapped KRREIL(^33pS)RRP(pS)YR is washed with 220 μL of 0.75% phosphoric acid. Filter plates are blotted to remove droplets from the underdrain. The underdrain is removed from the filter and the filter is placed into a clear plate liner (Wallac, Inc.). Added to each well is 100 μL of Microscint 20 (Packard).
After standing at least six hours (preferably overnight), the plates are counted in a Trilux scintillation counter (Wallac, Inc.). The ability of a compound to inhibit GSK-3β is determined by including various concentrations of the compound in the reaction mixture and comparing the signal produced to the signal produced in a reaction mixture without the compound.
The test yields the molar concentration of the test compound that produces a 50% inhibition of the GSK-3β enzyme activity.

3T3-L1 adipocytes = experiment: Glycogen Synthesis Assay (14C-glucose incorporation into glycogen); assay type: cell-based; settings: 1 μM compound
Protocol: This test measures the increase in the production of glycogen both in the absence and in the presence of insulin in the cells. This test is done according to standard protocols. (See Berger and Hayes, A High-Capacity assay for Activators of Glucose Incorporation into Glycogen in L6 Muscle Cells, Analytical Biochemistry, 261, 159-163 (1998).)
Briefly, 3T3-L1 adipocytes are plated and differentiated in a 96-well plate at 25,000 cells/well. The plate is serum-starved overnight. The serum-starvation media is removed just prior to assay, and the plate is washed with 100 μl/well Krebs-Ringer-Hepes buffer (KRBH). The KRBH is removed and 50 μl of compound (twice the amount of the final concentration) is added to the assay plate. Next, 50 μl of ^14C-labeled glucose is added to the assay plate at 0.1 μCi/well. The plate is then incubated at 37° C. for 2 hours.
The plate is washed with 100 μL/well of PBS, and the cells are lysed with 75 μl/well of 1N NaOH. The plate is heated at 70° C. for 20 minutes. An aliquot (50 μl) of the supernatant is transferred from the assay plate to a Millipore FC filter plate containing 120 μl/well of ice-cold ethanol. The plate is allowed to stand for 2 hours at 4° C. to facilitate precipitation. The ethanol is removed from the filter plate via a vacuum manifold, and the plate is washed with 100 μL/well of ice-cold 70% ethanol. The plate was allowed to dry overnight, and 75 μl/well of Microscint-20 was added to the filter plate. The plate was then counted on a Packard Topcount.

[1] = test system: β-catenin in AG04160C FAD lymphoblast cells; experiment: β-Catenin Protection Assay; assay type: cell-based, human; settings: fold induction over basal β-catenin, 24 hours, concentration not given
Protocol: This test measures the fold induction over basal β-catenin and is performed according to standard protocols (Hedgepeth, C. M., Dev. Biol. 185, 82-91 (1997); Chen, G., et al., J. Neurochem., 72, 1327-1330 (1999); Hong, M., et al., J. Biol. Chem., 272, 25326-25332 (1997)).
The human familial Alzheimer's disease (FAD) presenilin-1 AG04160C lymphoblast cell line (Coriell Cell Repository, Camden, N.J.) is maintained as a suspension culture in RPMI 1640 (with L-Glutamine) supplemented with 10% fetal bovine serum and 1% penicillin-streptomycin in an atmosphere of 37° C. and 5% CO2. The AG04160C FAD lymphoblast cells are seeded in T-25 cm^2 flasks at 2.5 to 5.0×10^5 cells/ml in a total volume of 10 ml. Following 16-18 hours of growth, cells are treated with compound at concentrations of 0.1 μM, 1.0 μM, and 10 μM, and are incubated for an additional 24 hours. […] The total protein concentration in whole cell lysate samples is determined using the BCA method (Pierce). […] The β-catenin accumulation/stability is then quantified following densitometry analysis of protein bands. […]

ZDF rats = experiment: Glucose Lowering Assay; assay type: in vivo, rat; settings: oral gavage once daily, relative to insulin
Protocol: This test measures the effect of the test compound on blood glucose and triglycerides relative to insulin. (See Eldar-Finkleman, et al, Expression and Characterization of Glycogen Synthase Kinase-3 Mutants and Their Effect on Glycogen Synthase Activity in Intact Cells, Proc. Nat. Acad. Sci., 93, 10228-10233 (1996).)
ZDF rats (Charles River, Inc.) at six weeks of age are housed individually with free access to food and water. Rats are dosed with drug once daily by oral gavage, with the compound prepared as a suspension in 1% caboxymethylcellusolve/0.25% Tween 80 (CMC-Tween). Vehicle controls are dosed with CMC-Tween only. The duration of study varied according to the protocol used, with acute dosing studies lasting one day and dose escalation studies lasting seven days. Body weights and food consumption measurements are also performed once a week for seven-day studies. For measurement of blood glucose and triglycerides, blood samples of 600 μl are collected by the tail snip method. (The tail snip for blood sampling is as follows: 1-2 mm of the tail is snipped with a sharp blade. After collection of blood, a scab forms at the site of wound. This scab is removed and the tail is gently massaged for other subsequent bleedings.) Glucose and triglyceride determinations are performed on a Hitachi 912 metabolic analyzer, with a kit utilizing the Trinder method. […]

[2] = Table II, 1 nM recombinant human GSK-3β, 50 μM ATP, 60 minutes at room temperature, read-out: GSK-3β IC50

recombinant human GSK-3β, sequence (P49841 whole entry): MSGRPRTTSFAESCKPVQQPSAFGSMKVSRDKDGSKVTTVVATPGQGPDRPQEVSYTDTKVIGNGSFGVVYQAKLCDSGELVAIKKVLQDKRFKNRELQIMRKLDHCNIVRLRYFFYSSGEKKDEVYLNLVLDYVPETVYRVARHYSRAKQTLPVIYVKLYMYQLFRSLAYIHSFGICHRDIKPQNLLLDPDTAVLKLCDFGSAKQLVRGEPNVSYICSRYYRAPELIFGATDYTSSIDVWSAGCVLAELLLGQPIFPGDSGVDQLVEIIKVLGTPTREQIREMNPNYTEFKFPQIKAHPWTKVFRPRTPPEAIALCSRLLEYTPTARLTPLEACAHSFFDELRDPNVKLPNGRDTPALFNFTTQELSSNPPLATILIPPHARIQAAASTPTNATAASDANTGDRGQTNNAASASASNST

Compound	IC50 (recombinant human GSK-3β; [2]) [nM]	also measured
Cn1ccc2c(C3=C(c4cn(CCCO)c5ccccc45)C(=O)NC3=O)cccc21 [Example 1, 3-(1-Methyl-1H-indol-4-yl)-4-[1-(3-hydroxypropyl)-1H-indol-3-yl]pyrrole-2,5-dione]	176	–
COc1cc(C2=C(c3cn(CCN4CCN(C)CC4)c4ccccc34)C(=O)NC2=O)c2occc2c1 [Example 100, 3-(5-Methoxybenzofur-7-yl)-4-{1-[2-(4-methylpiperazin-1-yl)ethyl]-1H-indol-3-yl}pyrrole-2,5-dione]	–	IC50 (recombinant human GSK-3β): 143 nM
CCN(CC)CCCc1cccc2c(C3=C(c4cccc5ccoc45)C(=O)NC3=O)cn(C)c12 [Example 102, 3-(Benzofur-7-yl)-4-[7-(3-diethylaminopropyl)-1-methyl-1H-indol-3-yl]pyrrole-2,5-dione]	125	–
CCN(CC)CCCOc1ccc2c(c1)c(C1=C(c3cc(F)cc4ccoc34)C(=O)NC1=O)cn2C(C)C [Example 114, 3-(5-Fluorobenzofur-7-yl)-4-[5-(3-diethylaminopropoxy)-1-isopropyl-1H-indol-3-yl]pyrrole-2,5-dione hydrochloride]	133	–
COc1ccc(C2=C(c3cn(CCCCN(C)C)c4ccccc34)C(=O)NC2=O)c2occc12 [Example 118]	70.2	–
Cl.Cn1cc(C2=C(c3cccc4ccoc34)C(=O)NC2=O)c2cc(OCCNCC3CC3)ccc21 [Example 119, 3-(Benzofur-7-yl)-4-{5-[2-(cyclopropylmethylamino)ethoxy]-1-methyl-1H-indol-3-yl}pyrrole-2,5-dione hydrochloride]	9.5	Glycogen Synthesis (fold increase at 1 μM) in absence of insulin (3T3-L1 adipocytes): 2.82× in absence of fold; Glycogen Synthesis (fold increase at 1 μM) in presence of insulin (3T3-L1 adipocytes): 2.13× in presence of fold; β-Catenin (fold increase) [1]: 4.9× fold
Cn1cc(C2=C(c3ccc(O)c4ccoc34)C(=O)NC2=O)c2ccccc21 [Example 135, 3-(4-Hydroxybenzofur-7-yl)-4-(1-methyl-1H-indol-3-yl)pyrrole-2,5-dione]	55.2	–
O=C1NC(=O)C(c2cccc3ccoc23)=C1c1cn(C2CCNCC2)c2ccccc12 [Example 139, 3-(Benzofur-7-yl)-4-[1-(piperidin-4-yl)-1H-indol-3-yl]pyrrole-2,5-dione]	5.74	–
CC(C)CN[C@H]1CC[C@H](n2cc(C3=C(c4cccc5ccoc45)C(=O)NC3=O)c3c(F)cccc32)CC1 [Example 150, 3-(Benzofur-7-yl)-4-[4-fluoro-1-(4-trans-isobutylaminocyclohexyl)-1H-indol-3-yl]pyrrole-2,5-dione hydrochloride]	10.6	Glycogen Synthesis (fold increase at 1 μM) in absence of insulin (3T3-L1 adipocytes): 2.97× in absence of fold; Glycogen Synthesis (fold increase at 1 μM) in presence of insulin (3T3-L1 adipocytes): 3.92× in presence of fold; Glucose Lowering (percent increase vs. effect of insulin) (ZDF rats): 58%
